In PubChem BioAssay AID1963852 (Molecular Pharmacology Branch, DTP, NCI, 2024):

System: 282377-053-R-J1-PDC complex spheroid viability
Test: Anticancer human tumor 282377-053-R-J1-PDC patient-derived colon adenocarcinoma cell line growth inhibition [POLQ]
Settings: for IC50: curve of first compound; for viability, T/C: stronger effect = lower value
Method in brief: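 Patient-derived tumour cells were co-cultured with HUVEC and mesenchymal stem cells as multicellular spheroids at 37 °C. They were treated with POLQ inhibitors (novobiocin, ART-558, RP6685) alone or combined with other agents. Top concentrations were at or near clinical Cmax (otherwise 10 microM; SN-38 at 1 microM), decreasing in half-log steps.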

[1] = second compound 0.0316 µM, first compound 0.0316 µM
[2] = second compound 0.0316 µM, first compound 0.1 µM
[3] = second compound 0.0316 µM, first compound 0.316 µM
[4] = second compound 0.0316 µM, first compound 1 µM
[5] = second compound 0.0316 µM, first compound 3.16 µM
[6] = second compound 0.0316 µM, first compound 10 µM
[7] = second compound 0.1 µM, first compound 0.0316 µM
[8] = second compound 0.1 µM, first compound 0.1 µM
[9] = second compound 0.1 µM, first compound 0.316 µM
[10] = second compound 0.1 µM, first compound 1 µM
[11] = second compound 0.1 µM, first compound 3.16 µM
[12] = second compound 0.1 µM, first compound 10 µM
[13] = second compound 0.316 µM, first compound 0.0316 µM
[14] = second compound 0.316 µM, first compound 0.1 µM
[15] = second compound 0.316 µM, first compound 0.316 µM
[16] = second compound 0.316 µM, first compound 1 µM
[17] = second compound 0.316 µM, first compound 3.16 µM
[18] = second compound 0.316 µM, first compound 10 µM
[19] = second compound 1 µM, first compound 0.0316 µM
[20] = second compound 1 µM, first compound 0.1 µM
[21] = second compound 1 µM, first compound 0.316 µM
[22] = second compound 1 µM, first compound 1 µM
[23] = second compound 1 µM, first compound 3.16 µM
[24] = second compound 1 µM, first compound 10 µM
[25] = second compound 3.16 µM, first compound 0.0316 µM
[26] = second compound 3.16 µM, first compound 0.1 µM
[27] = second compound 3.16 µM, first compound 0.316 µM
[28] = second compound 3.16 µM, first compound 1 µM
[29] = second compound 3.16 µM, first compound 3.16 µM
[30] = second compound 3.16 µM, first compound 10 µM
[31] = second compound 10 µM, first compound 0.0316 µM
[32] = second compound 10 µM, first compound 0.1 µM
[33] = second compound 10 µM, first compound 0.316 µM
[34] = second compound 10 µM, first compound 1 µM
[35] = second compound 10 µM, first compound 3.16 µM
[36] = second compound 10 µM, first compound 10 µM
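Further: spheroids exposed to compounds for seven days.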
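Wherever viability, T/C is given: 100% = DMSO vehicle control viability.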

Q: Which IC50 (second compound 0.0316 µM) does the source give for `C#Cc1c(F)ccc2cc(O)cc(-c3ncc4c(N5CC6CCC(C5)N6)nc(OCC56CCCN5CC(F)C6)nc4c3F)c12` (stereo unspecified) + Nc1ccc(C#CCN(C(=O)Cc2ncc(C(F)(F)F)cc2C(F)(F)F)c2ccc(F)cc2)nn1 here?
A: The IC50 was over 10 µM.

Q: And the IC50 (second compound 0.1 µM)?
A: Its IC50 is over 10 µM.

Q: What about the IC50 (second compound 0.316 µM) of the same compound?
A: Its IC50 is over 10 µM.

Q: What about the IC50 (second compound 1 µM) of the same compound?
A: The IC50 was over 10 µM.

Q: What about the IC50 (second compound 3.16 µM) of the same compound?
A: The IC50 was over 10 µM.

Q: What about the IC50 (second compound 10 µM) of the same compound?
A: The IC50 was over 10 µM.

Q: And the viability, T/C [1]?
A: Its viability, T/C is 101%.

Q: And the viability, T/C [2]?
A: The viability, T/C was 114%.

Q: What about the viability, T/C [3] of the same compound?
A: The viability, T/C was 91.2%.

Q: And the viability, T/C [4]?
A: Its viability, T/C is 97.5%.

Q: What about the viability, T/C [5] of the same compound?
A: The viability, T/C was 99.8%.

Q: And the viability, T/C [6]?
A: The viability, T/C was 84.8%.

Q: And the viability, T/C [7]?
A: Its viability, T/C is 99.8%.

Q: And the viability, T/C [8]?
A: The viability, T/C was 108%.

Q: And the viability, T/C [9]?
A: Its viability, T/C is 83.5%.

Q: And the viability, T/C [10]?
A: The viability, T/C was 116%.

Q: And the viability, T/C [11]?
A: The viability, T/C was 99.5%.

Q: And the viability, T/C [12]?
A: The viability, T/C was 79.6%.

Q: What about the viability, T/C [13] of the same compound?
A: The viability, T/C was 97.1%.

Q: What about the viability, T/C [14] of the same compound?
A: The viability, T/C was 106%.

Q: What about the viability, T/C [15] of the same compound?
A: The viability, T/C was 94.9%.

Q: And the viability, T/C [16]?
A: The viability, T/C was 85.2%.

Q: What about the viability, T/C [17] of the same compound?
A: Its viability, T/C is 118%.

Q: What about the viability, T/C [18] of the same compound?
A: Its viability, T/C is 110%.

Q: What about the viability, T/C [19] of the same compound?
A: The viability, T/C was 93%.

Q: And the viability, T/C [20]?
A: The viability, T/C was 121%.

Q: What about the viability, T/C [21] of the same compound?
A: The viability, T/C was 105%.

Q: What about the viability, T/C [22] of the same compound?
A: The viability, T/C was 92.7%.

Q: What about the viability, T/C [23] of the same compound?
A: Its viability, T/C is 94.7%.

Q: What about the viability, T/C [24] of the same compound?
A: Its viability, T/C is 96.8%.

Q: And the viability, T/C [25]?
A: The viability, T/C was 121%.

Q: And the viability, T/C [26]?
A: The viability, T/C was 120%.

Q: What about the viability, T/C [27] of the same compound?
A: The viability, T/C was 94%.

Q: And the viability, T/C [28]?
A: The viability, T/C was 107%.

Q: And the viability, T/C [29]?
A: The viability, T/C was 90.2%.

Q: What about the viability, T/C [30] of the same compound?
A: Its viability, T/C is 96.3%.

Q: And the viability, T/C [31]?
A: The viability, T/C was 117%.

Q: And the viability, T/C [32]?
A: Its viability, T/C is 107%.

Q: What about the viability, T/C [33] of the same compound?
A: The viability, T/C was 109%.

Q: And the viability, T/C [34]?
A: The viability, T/C was 112%.

Q: And the viability, T/C [35]?
A: The viability, T/C was 90.8%.

Q: What about the viability, T/C [36] of the same compound?
A: The viability, T/C was 119%.

Q: What does the source list for `CC1COCCN1c1cc(C2(O)CC3CCC(C2)O3)c2cnn(-c3ccn[nH]3)c2n1` (stereo unspecified) + Nc1ccc(C#CCN(C(=O)Cc2ncc(C(F)(F)F)cc2C(F)(F)F)c2ccc(F)cc2)nn1?
A: IC50 (second compound 0.0316 µM): 1.98 µM; IC50 (second compound 0.1 µM): 0.588 µM; IC50 (second compound 0.316 µM): 1.29 µM; IC50 (second compound 1 µM): 0.73 µM; IC50 (second compound 3.16 µM): 1.18 µM; IC50 (second compound 10 µM): 1.08 µM; viability, T/C [1]: 83.8%; viability, T/C [2]: 75.4%; viability, T/C [3]: 67.5%; viability, T/C [4]: 53.3%; viability, T/C [5]: 47.8%; viability, T/C [6]: 40.5%; viability, T/C [7]: 89.3%; viability, T/C [8]: 89.3%; viability, T/C [9]: 57.3%; viability, T/C [10]: 48.7%; viability, T/C [11]: 43.3%; viability, T/C [12]: 36.4%; viability, T/C [13]: 107%; viability, T/C [14]: 84.6%; viability, T/C [15]: 63.9%; viability, T/C [16]: 50.6%; viability, T/C [17]: 46.5%; viability, T/C [18]: 36.3%; viability, T/C [19]: 97.6%; viability, T/C [20]: 83.9%; viability, T/C [21]: 71%; viability, T/C [22]: 38.3%; viability, T/C [23]: 44.4%; viability, T/C [24]: 43.6%; viability, T/C [25]: 92.3%; viability, T/C [26]: 75.7%; viability, T/C [27]: 65.6%; viability, T/C [28]: 47.6%; viability, T/C [29]: 45.9%; viability, T/C [30]: 40.8%; viability, T/C [31]: 97.3%; viability, T/C [32]: 77.2%; viability, T/C [33]: 62.8%; viability, T/C [34]: 49.3%; viability, T/C [35]: 44%; viability, T/C [36]: 40.1%

Q: Which IC50 (second compound 0.0316 µM) does the source give for `O=C(Nc1ccc(O)c(NS(=O)(=O)c2ccc(F)cc2)c1)c1ccc(-c2ccccc2)cc1` + Nc1ccc(C#CCN(C(=O)Cc2ncc(C(F)(F)F)cc2C(F)(F)F)c2ccc(F)cc2)nn1 here?
A: The IC50 was over 10 µM.

Q: And the IC50 (second compound 0.1 µM)?
A: Its IC50 is over 10 µM.

Q: What about the IC50 (second compound 0.316 µM) of the same compound?
A: The IC50 was over 10 µM.

Q: And the IC50 (second compound 1 µM)?
A: Its IC50 is over 10 µM.

Q: What about the IC50 (second compound 3.16 µM) of the same compound?
A: Its IC50 is over 10 µM.

Q: And the IC50 (second compound 10 µM)?
A: Its IC50 is over 10 µM.

Q: And the viability, T/C [1]?
A: The viability, T/C was 92.8%.

Q: What about the viability, T/C [2] of the same compound?
A: The viability, T/C was 115%.

Q: What about the viability, T/C [3] of the same compound?
A: Its viability, T/C is 98.1%.

Q: And the viability, T/C [4]?
A: The viability, T/C was 102%.

Q: And the viability, T/C [5]?
A: Its viability, T/C is 97.9%.

Q: What about the viability, T/C [6] of the same compound?
A: The viability, T/C was 107%.

Q: And the viability, T/C [7]?
A: Its viability, T/C is 93.1%.

Q: And the viability, T/C [8]?
A: Its viability, T/C is 107%.

Q: What about the viability, T/C [9] of the same compound?
A: The viability, T/C was 100%.

Q: What about the viability, T/C [10] of the same compound?
A: The viability, T/C was 97.2%.

Q: And the viability, T/C [11]?
A: Its viability, T/C is 104%.

Q: And the viability, T/C [12]?
A: Its viability, T/C is 103%.

Q: What about the viability, T/C [13] of the same compound?
A: The viability, T/C was 96.9%.

Q: And the viability, T/C [14]?
A: The viability, T/C was 101%.

Q: And the viability, T/C [15]?
A: Its viability, T/C is 112%.

Q: What about the viability, T/C [16] of the same compound?
A: Its viability, T/C is 95.4%.

Q: And the viability, T/C [17]?
A: Its viability, T/C is 100%.

Q: And the viability, T/C [18]?
A: The viability, T/C was 99.8%.

Q: And the viability, T/C [19]?
A: The viability, T/C was 96.5%.

Q: And the viability, T/C [20]?
A: The viability, T/C was 95.5%.

Q: What about the viability, T/C [21] of the same compound?
A: Its viability, T/C is 98.7%.

Q: And the viability, T/C [22]?
A: The viability, T/C was 109%.

Q: What about the viability, T/C [23] of the same compound?
A: Its viability, T/C is 87.1%.

Q: And the viability, T/C [24]?
A: Its viability, T/C is 100%.

Q: And the viability, T/C [25]?
A: The viability, T/C was 113%.

Q: What about the viability, T/C [26] of the same compound?
A: Its viability, T/C is 113%.

Q: And the viability, T/C [27]?
A: Its viability, T/C is 103%.

Q: What about the viability, T/C [28] of the same compound?
A: The viability, T/C was 100%.

Q: What about the viability, T/C [29] of the same compound?
A: The viability, T/C was 109%.

Q: What about the viability, T/C [30] of the same compound?
A: The viability, T/C was 117%.

Q: What about the viability, T/C [31] of the same compound?
A: Its viability, T/C is 124%.

Q: And the viability, T/C [32]?
A: Its viability, T/C is 108%.

Q: And the viability, T/C [33]?
A: Its viability, T/C is 109%.

Q: And the viability, T/C [34]?
A: The viability, T/C was 133%.

Q: What about the viability, T/C [35] of the same compound?
A: The viability, T/C was 110%.

Q: What about the viability, T/C [36] of the same compound?
A: The viability, T/C was 139%.
